Like-named read-outs stand apart in the source and are kept apart here.
Tests used:
in vitro [1] = conditions: male, SD, rat, plasma
in vitro [2] = conditions: human; for half-life at 1 μM: s9, T1/2
[3] = Secondary JCV assay (qPCR), COS7 cells; conditions: African green monkey
JC virus (JCV) [4] = assay: Secondary JCV assay (qPCR), COS7 cells
[5] = system: BK virus (BKV), Gardner strain; assay: microbe, parasite or virus in culture; conditions: Betapolyomavirus hominis, HFF
[6] = MRC-5 cytotoxicity assay (MTS) and visual cytotoxicity; conditions: human
[7] = human; for CLhep / Eh / Peak area ratio, parent: 1 μM
JC virus (JCV) [8] = assay: microbe, parasite or virus in culture; conditions: JC polyomavirus, COS-7
JC virus (JCV) [9] = system: JC virus (JCV)
in vitro [10] = conditions: human
[11] = rat; for CLhep / Eh: 1 μM; for Peak area ratio, parent: 1 µM
in vitro [12] = conditions: both, human, plasma
in vitro [13] = conditions: human; remark: listed apart in the source
HFF cells = assay: Cell proliferation assay, human foreskin fibroblast (HFF) cells; type: cell-based; conditions: Homo sapiens, 72 h, cell number
[14] = system: BK virus (BKV), Gardner strain
HCMV AD169 = assay: HCMV plaque reduction assay, MRC-5 cells, strain AD169; type: cell-based, Human cytomegalovirus
in vitro [15] = conditions: African green monkey
in vitro [16] = conditions: rat; for half-life at 1 μM: s9, T1/2
in vivo = conditions: male, Sprague-Dawley, rat; for AUC(0-inf): AUCInf; for AUC(0-t): AUClast; for MRT inf: MRTInf
[17] = Rat plasma pharmacokinetics after IV infusion and PO dose; conditions: rats; 10 mg/kg IV 2-h infusion and PO

## CCCCCCCCCCCCCCCCOCCCOP(=O)(O)OCC1=CC(O)C(n2ccc(=O)[nH]c2=O)O1 (stereo not drawn) [AB23039]
In vitro [1]
  half-life at 0.75 µM: > 9.32 h
  half-life at 0.75 μM: > 9.3 h
In vitro [2]; s9
  microsomal CLint at 1 μM: 5.2 µL/min/mg
In vitro [2]
  half-life at 1 μM: 4.41 h
[3]
  CC50 at 7 days: 46.8 µM
JC virus (JCV) [4]; JC polyomavirus, COS-7, 168 h
  EC50: 3.07 µM
  EC90: 9.44 µM
JC virus (JCV) [4]; secondary JCV assay, COS7 cells, class by SI50
  Activity: MOD (MOD (Moderately Active) SI50 = 10-19.9)
JC virus (JCV) [4]; secondary testing, COS7 cells
  antiviral activity against JCV (in words): moderate
[5]
  EC50: 0.86 µM
  EC90: 7.76 µM
[6]
  CC50 at 6 days: 42.2 µM
[7]
  CLhep: 9.1 mL/min/kg
  Eh: 44%
[7]; 15 min
  Peak area ratio, parent: 3.41E−01
[7]; 60 min
  Peak area ratio, parent: 3.09E−01
[7]; s9
  hydrolytic stability in hepatic S9 (in words): most stable
[7]; s9, 1 μM
  T1/2: 4.42 h
JC virus (JCV) [8]
  EC50: 0.21 µM
  EC90: 23.4 µM
JC virus (JCV) [9]
  Activity: HI (key: NA (Not Active) SI50 = 0-3.9; LO (Slightly Active) SI50 = 4-9.9; MOD (Moderately Active) SI50 = 10-19.9; HI (Highly Active) SI50 = ≥20)
  activity against JC virus (in words): high activity
In vitro [10]
  CC50: 90.9 µM
[11]
  CLhep: 14.3 mL/min/kg
  Eh: 26%
[11]; 15 min
  Peak area ratio, parent: 3.61E−01
[11]; 60 min
  Peak area ratio, parent: 3.25E−01
[11]; s9
  hydrolytic stability in hepatic S9 (in words): most stable
[11]; s9, 1 μM
  T1/2: 5.78 h
In vitro [12]
  half-life at 0.75 µM: > 9.32 h
  half-life at 0.75 μM: > 9.3 h
In vitro [13]
  CC50 at 7 d: > 150 µM
HFF cells
  IC50: > 100 µM
[14]
  Activity: HI (key: NA (Not Active) SI50 = 0-3.9; LO (Slightly Active) SI50 = 4-9.9; MOD (Moderately Active) SI50 = 10-19.9; HI (Highly Active) SI50 = ≥20)
  activity against BK virus (in words): high activity
HCMV AD169; Human betaherpesvirus 5, 144 h, hCMV AD169, MRC5 cells, plaque assay, 6-days duration
  EC50: 18.1 µM
HCMV AD169; MRC5 cells, AD169 strain
  antiviral activity against hCMV (in words): impressive antiviral activity
HCMV AD169; hCMV AD169, MRC5 cells
  Selectivity Index (CC50/EC50): 2.33
In vitro [15]
  CC50: 71.8 µM
In vitro [16]; s9
  microsomal CLint at 1 μM: 4 µL/min/mg
In vitro [16]
  half-life at 1 μM: 5.79 h

## CCCCCCCCCCCCCCCCOCCCOP(=O)(O)CO[C@H](CO)Cn1ccc(N)nc1=O [BCV, Brincidofovir]
In vitro [1]
  half-life at 0.75 μM: > 9.3 h
In vitro [2]
  half-life at 1 μM: 4.1 h
In vivo; iv, 10 mg/kg
  concentration at 0.5 h: 3400 nM
  concentration at 1 h: 3200 nM
  concentration at 2 h: 3660 nM
  concentration at 4 h: 45 nM
  concentration at 8 h: 9 nM
  concentration at 24 h: 6 nM
  AUC(0-inf): 9.01 µM·h
  AUC(0-t): 8.98 µM·h
  Cmax: 3760 nM
  MRT inf: 1.9 h
In vivo; iv, 10 mg/kg, CL
  clearance: 33.3 mL/min/kg
In vivo; iv, 10 mg/kg, Vss
  Vd: 3.7 L/kg
In vivo; iv, 10 mg/kg, t1/2
  half-life: 0.8 h
In vivo; iv, t1/2 in plasma
  half-life: < 1 h
In vivo; po, 10 mg/kg
  bioavailability: 11%
  concentration at 0.5 h: 21 nM
  concentration at 1 h: 25 nM
  concentration at 2 h: 42 nM
  concentration at 4 h: 39 nM
  concentration at 8 h: 11 nM
  AUC(0-inf): 1.2 µM·h
  AUC(0-t): 1.17 µM·h
  Cmax: 141 nM
  MRT inf: 6.9 h
In vivo; po, 10 mg/kg, t1/2
  half-life: 4.2 h
In vivo; po, 10 mg/kg, tmax
  Tmax: 4 h
[5]
  EC50: 0.06 µM
  EC90: 0.39 µM
[7]
  CLhep: 9.5 mL/min/kg
  Eh: 31%
JC virus (JCV) [8]
  EC50: 0.74 µM
  EC90: 1.85 µM
JC virus (JCV) [9]
  activity against JC virus (in words): high or moderate activity
In vitro [10]
  CC50: > 10 µM
[17]
  tolerability / adverse events (AE): well-tolerated
[11]
  CLhep: 11.5 mL/min/kg
  Eh: 16%
In vitro [12]
  half-life at 0.75 μM: > 9.3 h
[14]
  activity against BK virus (in words): high or moderate activity
In vitro [15]
  CC50: 9.25 µM
In vitro [16]
  half-life at 1 μM: 7.68 h
